From patent US4563472A, “Iodoallyl and iodopropargyl substituted tetrazoles and anti-microbial compositions thereof” (Meiji Seika Kaisha, Ltd., priority 1982, dated 1986)
≈ marks a conversion by molar mass, not a printed value. Read-outs that look alike come from different tables or passages of the source.

Tests used:
Candida alubicans GA-24 = test: Antifungal Activity (in Medicinal Field), MIC; assay type: cell-based
[1] = test system: Trichophyton interdigitale; test: Antifungal Activity (in Medicinal Field), MIC; assay type: cell-based; conditions: read-out: Minimal Inhibitory Conc. (MIC)
[2] = test system: Trichophyton metagrophytes 530324; test: Antifungal Activity (in Medicinal Field), MIC; assay type: cell-based
[3] = test system: Cryptococcus neoformans Cr-1; test: Antifungal Activity (in Medicinal Field), MIC; assay type: cell-based; conditions: CR1, read-out: Minimal Inhibitory Conc. (MIC)
[4] = test system: Aspergillus fumigatus Saito; test: Antifungal Activity (in Medicinal Field), MIC; assay type: cell-based; conditions: read-out: Minimal Inhibitory Conc. (MIC)
[5] = test system: Cladosporium herbarum IAM F-517; test: Antifungal Activity (in Industrial Field), MIC; assay type: cell-based; conditions: IAMF517, read-out: Minimal Inhibitory Conc. (MIC)
Mucor spinescens IAM Mu3 = test: Antifungal Activity (in Industrial Field), MIC; assay type: cell-based; conditions: IAMMU3, read-out: Minimal Inhibitory Conc. (MIC)
[6] = test system: Chaetomium globosum ATCC 6205; test: Antifungal Activity (in Industrial Field), MIC; assay type: cell-based; conditions: ATCC6205, read-out: Minimal Inhibitory Conc. (MIC)
[7] = test system: Aspergillus flavus ATCC 6275; test: Antifungal Activity (in Industrial Field), MIC; assay type: cell-based; conditions: ATCC6275, read-out: Minimal Inhibitory Conc. (MIC)
[8] = test system: Aspergillus terreus PQMD 82 j; test: Antifungal Activity (in Industrial Field), MIC; assay type: cell-based; conditions: PQMD82J, read-out: Minimal Inhibitory Conc. (MIC)
[9] = test system: Pullularia pullulans IAM F-24; test: Antifungal Activity (in Industrial Field), MIC; assay type: cell-based
[10] = test system: Penicillium luteum ATCC 9644; test: Antifungal Activity (in Industrial Field), MIC; assay type: cell-based; conditions: Ascospirella lutea, ATCC9644, read-out: Minimal Inhibitory Conc. (MIC)
[11] = test system: Rhizopus nigricans S.N. 32; test: Antifungal Activity (in Industrial Field), MIC; assay type: cell-based; conditions: Rhizopus stolonifer, read-out: Minimal Inhibitory Conc. (MIC)
[12] = test system: Trichoderma T-1 ATCC 9645; test: Antifungal Activity (in Industrial Field), MIC; assay type: cell-based; conditions: ATCC9645, read-out: Minimal Inhibitory Conc. (MIC)
[13] = test system: Aspergillus fumigatus IAM 2621; test: Antifungal Activity (in Industrial Field), MIC; assay type: cell-based; conditions: IAM2621, read-out: Minimal Inhibitory Conc. (MIC)
[14] = test system: Colletotrichum lagenarium; test: Antibacterial and Antifungal Activities (in Agricultural Field), MIC; assay type: cell-based; conditions: Colletotrichum orbiculare, read-out: Minimal Inhibitory Conc. (MIC)
Gibberella fujikuroi = test: as above; assay type: cell-based; conditions: Fusarium fujikuroi, read-out: Minimal Inhibitory Conc. (MIC)
[15] = test system: Fusarium oxysporum f. lycopersici; test: as above; assay type: cell-based; conditions: read-out: Minimal Inhibitory Conc. (MIC)
Cochliobolus miyabeanus = test: as above; assay type: cell-based; conditions: Bipolaris oryzae, read-out: Minimal Inhibitory Conc. (MIC)
Botrytis cinerea = test: as above; assay type: cell-based; conditions: read-out: Minimal Inhibitory Conc. (MIC)
Alternaria kikuchiana = test: as above; assay type: cell-based; conditions: read-out: Minimal Inhibitory Conc. (MIC)
Pellicularia filamentosa = test: as above; assay type: cell-based; conditions: read-out: Minimal Inhibitory Conc. (MIC)
Erwinia carotovora = test: as above; assay type: cell-based; conditions: Pectobacterium carotovorum, read-out: Minimal Inhibitory Conc. (MIC)
[16] = test system: Xanthomonas campestris pv. oryzae; test: microbe, parasite or virus in culture; assay type: cell-based; conditions: read-out: Minimal Inhibitory Conc. (MIC)
Glomerella cingulata = test: Antibacterial and Antifungal Activities (in Agricultural Field), MIC; assay type: cell-based; conditions: Colletotrichum gloeosporioides, read-out: Minimal Inhibitory Conc. (MIC)
[17] = test system: Corynebacterium michiganense; test: as above; assay type: cell-based; conditions: Clavibacter michiganensis; Corynebacterium michiganense; read-out: Minimal Inhibitory Conc. (MIC)
[18] = test system: Pseudomonas syringae pv. tabaci; test: as above; assay type: cell-based; conditions: read-out: Minimal Inhibitory Conc. (MIC)
Phricularia oryzae = test: as above; assay type: cell-based; conditions: read-out: Minimal Inhibitory Conc. (MIC)
Diaporithe citri = test: as above; assay type: cell-based; conditions: read-out: Minimal Inhibitory Conc. (MIC)
[19] = test system: Xanthomonas campestris pv. citri; test: as above; assay type: cell-based; conditions: read-out: Minimal Inhibitory Conc. (MIC)
[20] = test system: Trichophyton mentagrophytes; test: Therapeutic experiment on trichophytosis in guinea pigs, visual observation; assay type: in vivo, guinea pigs (White Hartly-strain); conditions: 1% preparation, 0.25 ml once per day, 8 consecutive days
[21] = test system: Trichophyton mentagrophytes; test: Reducing culture positive rate of skin slices from infected guinea pigs; assay type: in vivo, guinea pigs (White Hartly-strain); set-up: concentration or dose not given beside the values; conditions: after 8 days application, non-treated 100
[22] = GA24, Candida alubicans GA-24, read-out: Minimal Inhibitory Conc. (MIC)
[23] = Trichophyton metagrophytes 530324, read-out: Minimal Inhibitory Conc. (MIC)

`Cc1nnnn1CC(I)=C(I)I` [1-(2',3',3'-triiodoallyl)-5-methyltetrazole] showed an MIC (Candida alubicans GA-24; [22]) of 3.12 µg/mL (≈ 6.22 µM), an MIC [1] of 0.78 µg/mL (≈ 1.55 µM) and an MIC [2, 23] of 0.78 µg/mL (≈ 1.55 µM). The MIC [3] was 6.25 µg/mL (≈ 12.5 µM) and the MIC [4] was 0.78 µg/mL (≈ 1.55 µM).
Work on `IC#CCn1ncnn1` [2-(1'-iodopropyn-3'-yl)tetrazole] yielded an MIC (Candida alubicans GA-24; Candida, GA24, read-out: Minimal Inhibitory Conc. (MIC)) of 3.12 µg/mL (≈ 13.3 µM), an MIC [1] of 1.56 µg/mL (≈ 6.67 µM) and an MIC [5] of 3.13 µg/mL (≈ 13.4 µM). For the same compound, the MIC (Mucor spinescens IAM Mu3) was 3.13 µg/mL (≈ 13.4 µM), the MIC [6] was 25 µg/mL (≈ 107 µM) and the MIC ([2]; Trichophyton, 530324, read-out: Minimal Inhibitory Conc. (MIC)) was 1.56 µg/mL (≈ 6.67 µM). The MIC [7] was 6.25 µg/mL (≈ 26.7 µM), the MIC [8] was 0.78 µg/mL (≈ 3.33 µM) and the MIC ([9]; IAMF24, Pullularia pullulans IAM F-24, read-out: Minimal Inhibitory Conc. (MIC)) was 6.25 µg/mL (≈ 26.7 µM). For the same compound, the MIC [10] was 3.13 µg/mL (≈ 13.4 µM), the MIC [11] was 6.25 µg/mL (≈ 26.7 µM) and the MIC [3] was 0.78 µg/mL (≈ 3.33 µM). It also gave an MIC [12] of 3.13 µg/mL (≈ 13.4 µM), an MIC [13] of 25 µg/mL (≈ 107 µM) and an MIC [4] of 1.56 µg/mL (≈ 6.67 µM).
For `CC(=O)Nc1nnn(CC(I)=C(I)I)n1` [2-(2',3',3'-triiodoallyl)-5-acetylaminotetrazole], the MIC (Candida alubicans GA-24; [22]) was 100 µg/mL (≈ 184 µM), the MIC [1] was 3.12 µg/mL (≈ 5.73 µM) and the MIC [2, 23] was 3.12 µg/mL (≈ 5.73 µM). It also gave an MIC [3] of 100 µg/mL (≈ 184 µM) and an MIC [4] of 12.5 µg/mL (≈ 22.9 µM).
`Cc1nnn(CC(I)=C(I)I)n1` [2-(2',3',3'-triiodoallyl)-5-methyltetrazole] showed an MIC [14] of 0.78 µg/mL (≈ 1.55 µM), an MIC (Gibberella fujikuroi) of 0.78 µg/mL (≈ 1.55 µM) and an MIC (Candida alubicans GA-24; [22]) of 0.78 µg/mL (≈ 1.55 µM). It also gave an MIC [1] of 0.19 µg/mL (≈ 0.379 µM), an MIC [15] of 3.13 µg/mL (≈ 6.24 µM) and an MIC [5] of 6.25 µg/mL (≈ 12.5 µM). It also gave an MIC (Mucor spinescens IAM Mu3) of 1.56 µg/mL (≈ 3.11 µM), an MIC (Cochliobolus miyabeanus) of 6.25 µg/mL (≈ 12.5 µM) and an MIC (Botrytis cinerea) of 0.39 µg/mL (≈ 0.777 µM). It also gave an MIC [6] of 6.25 µg/mL (≈ 12.5 µM), an MIC [2, 23] of 0.19 µg/mL (≈ 0.379 µM) and an MIC (Alternaria kikuchiana) of 1.56 µg/mL (≈ 3.11 µM). It also gave an MIC (Pellicularia filamentosa) greater than 100 µg/mL, an MIC (Erwinia carotovora) greater than 100 µg/mL and an MIC [7] of 1.56 µg/mL (≈ 3.11 µM). The MIC [16] was 6.25 µg/mL (≈ 12.5 µM), the MIC [8] was 0.39 µg/mL (≈ 0.777 µM) and the MIC (Glomerella cingulata) was 0.39 µg/mL (≈ 0.777 µM). For the same compound, the MIC ([9]; IAMF24, read-out: Minimal Inhibitory Conc. (MIC)) was 3.13 µg/mL (≈ 6.24 µM), the MIC [17] was 25 µg/mL (≈ 49.8 µM) and the MIC [18] was greater than 100 µg/mL. The MIC (Phricularia oryzae) was 3.13 µg/mL (≈ 6.24 µM), the MIC [10] was 6.25 µg/mL (≈ 12.5 µM) and the MIC [11] was 1.56 µg/mL (≈ 3.11 µM). For the same compound, the MIC (Diaporithe citri) was 0.78 µg/mL (≈ 1.55 µM), the MIC [19] was 50 µg/mL (≈ 99.6 µM) and the MIC [3] was 1.56 µg/mL (≈ 3.11 µM). The MIC [12] was 6.25 µg/mL (≈ 12.5 µM), the MIC [13] was 1.56 µg/mL (≈ 3.11 µM) and the MIC [4] was 0.19 µg/mL (≈ 0.379 µM).
Work on `IC(I)=C(I)Cn1nnc(-c2ccccc2)n1` [2-(2',3',3'-triiodoallyl)-5-phenyltetrazole] yielded an MIC (Candida alubicans GA-24; [22]) of 12.5 µg/mL (≈ 22.2 µM), an MIC [1] of 3.12 µg/mL (≈ 5.53 µM) and an MIC [2, 23] of 1.56 µg/mL (≈ 2.77 µM). It also gave an MIC [3] of 12.5 µg/mL (≈ 22.2 µM) and an MIC [4] of 6.25 µg/mL (≈ 11.1 µM).
`Clc1ccccc1C(c1ccccc1)(c1ccccc1)n1ccnc1` [chlotrimazol, 1-(O-chloro-α,α-diphenylbenzyl)imidazole, reference compound] was tested, and the “Therapeutic Effect: Desquamation” value [20] was “effective”, the “Therapeutic Effect: Thickening” value [20] was “effective” and the “Reducing Culture Positive Rate” value ([21]; 3 days culture) was 75%. For the same compound, the “Reducing Culture Positive Rate” value ([21]; 5 days culture) was 96% and the “Reducing Culture Positive Rate” value ([21]; 7 days culture) was 96%.
With `O=[N+]([O-])c1c(Cl)cccc1-c1c[nH]cc1Cl` [pyrrolnitrin, 3-chloro-4-(2'-nitro-3'-chlorophenyl)pyrrole, reference compound] the “Therapeutic Effect: Thickening” value [20] was “effective”, the “Reducing Culture Positive Rate” value ([21]; 3 days culture) was 62% and the “Reducing Culture Positive Rate” value ([21]; 5 days culture) was 87%. For the same compound, the “Reducing Culture Positive Rate” value ([21]; 7 days culture) was 87%.
